ChEMBL document CHEMBL3588818 (Eur J Med Chem, 2015)

How the values were obtained:
[1] = Displacement of [3H]DTG from sigma2 receptor in Sprague-Dawley rat liver membranes incubated for 2 hrs in presence of dextrallorphan by liquid scintillation counting based competitive radioligand binding assay; settings: read-out: Ki(app)
[2] = system: PC-12; test: Selectivity index, ratio of Ki for sigma1 receptor in Sprague-Dawley rat cortical membranes to Ki for rat VAChT expressed in PC12 cell membranes; format: cell-based
[3] = system: PC-12; test: Selectivity index, ratio of Ki for sigma2 receptor in Sprague-Dawley rat liver membranes to Ki for rat VAChT expressed in PC12 cell membranes; format: cell-based
[4] = target: T1, Vesicular acetylcholine transporter (Rattus norvegicus, UniProt Q62666); test: Displacement of (-)-[3H]vesamicol from rat VAChT expressed in PC12 cell membranes incubated for 2 hrs by liquid scintillation counting based competitive radioligand binding assay; set-up: species or system PC-12; settings: read-out: Ki(app)
T1 sequence (Q62666 whole entry): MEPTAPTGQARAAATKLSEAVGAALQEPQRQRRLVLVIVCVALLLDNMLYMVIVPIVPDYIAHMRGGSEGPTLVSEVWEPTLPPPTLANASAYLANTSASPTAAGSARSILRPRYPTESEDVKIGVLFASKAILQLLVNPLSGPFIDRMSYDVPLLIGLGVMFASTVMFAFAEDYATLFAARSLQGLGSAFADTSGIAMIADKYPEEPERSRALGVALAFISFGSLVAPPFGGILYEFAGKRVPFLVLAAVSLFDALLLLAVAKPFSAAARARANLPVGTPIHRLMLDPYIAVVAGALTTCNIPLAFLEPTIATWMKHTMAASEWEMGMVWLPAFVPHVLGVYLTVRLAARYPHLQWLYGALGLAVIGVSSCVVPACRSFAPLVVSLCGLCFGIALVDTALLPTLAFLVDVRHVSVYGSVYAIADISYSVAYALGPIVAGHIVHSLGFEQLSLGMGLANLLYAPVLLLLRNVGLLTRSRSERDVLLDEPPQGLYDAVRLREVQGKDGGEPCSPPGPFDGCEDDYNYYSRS

[5] = target: Sigma non-opioid intracellular receptor 1 (Rattus norvegicus, UniProt Q9R0C9); test: Displacement of […] from sigma1 receptor in Sprague-Dawley rat cortical membranes incubated for 2 hrs by liquid scintillation counting based competitive radioligand binding assay; settings: read-out: Ki(app)
Sequence of Sigma non-opioid intracellular receptor 1 (Q9R0C9 whole entry): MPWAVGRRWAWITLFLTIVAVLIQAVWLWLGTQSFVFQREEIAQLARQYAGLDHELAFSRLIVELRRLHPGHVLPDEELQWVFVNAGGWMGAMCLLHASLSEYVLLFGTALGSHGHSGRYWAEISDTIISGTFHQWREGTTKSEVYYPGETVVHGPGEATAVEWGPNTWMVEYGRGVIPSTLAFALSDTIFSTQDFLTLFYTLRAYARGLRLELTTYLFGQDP

Row | Structure (SMILES) | Ki [1] [nM] | Ratio Ki [2] | Ratio Ki [3] | Ki [4] [nM] | Ki [5] [nM]
1 | O[C@@H]1CC[C@@H](OCc2ccc(F)cc2)C[C@H]1N1CCC(c2ccncc2)CC1 (racemic) | 85.8 | < 0.1 | < 0.1 | 1350 | 26.4
2 | O[C@@H]1C[C@@H](OCc2ccc(F)cc2)CC[C@H]1N1CCC(c2ccccc2)CC1 (racemic) | 67.1 | < 0.1 | < 0.1 | 2390 | 16.8
3 | O[C@@H]1C[C@@H](OCc2ccc(F)cc2)CC[C@H]1N1CCN(c2ccccc2)CC1 (racemic) | 1040 | < 0.1 | 0.2 | 6190 | 189
4 | O[C@@H]1C[C@@H](OCc2ccc(F)cc2)CC[C@H]1N1CC=C(c2ccccc2)CC1 (racemic) | 55.5 | < 0.1 | < 0.1 | 2830 | 15.9
5 | CCN(CCCc1ccccc1)[C@@H]1CC[C@H](OCc2ccc(F)cc2)C[C@H]1O (racemic) | 280 | < 0.1 | 0.1 | 1930 | 19.7
6 | O[C@@H]1C[C@@H](OCc2ccc(F)cc2)CC[C@H]1N1CCC(O)(c2ccccc2)CC1 (racemic) | 254 |  |  | > 10000 | 31
7 | CC(=O)C1(c2ccccc2)CCN([C@@H]2CC[C@H](OCc3ccc(F)cc3)C[C@H]2O)CC1 (racemic) | 103 |  |  | > 10000 | 120
8 | O[C@@H]1C[C@@H](OCc2ccc(F)cc2)CC[C@H]1N1CCC(c2ccccc2)(c2ccccc2)CC1 (racemic) | 5540 | 0.3 | 2 | 2730 | 736
9 | O[C@@H]1C[C@@H](OCc2ccc(F)cc2)CC[C@H]1N1CCC(Cc2ccccc2)CC1 (racemic) | 207 | < 0.1 | 0.2 | 1300 | 9.2
10 | O[C@@H]1C[C@@H](OCc2ccc(F)cc2)CC[C@H]1N1CCc2ccccc2C1 (racemic) | 45.6 |  |  | > 10000 | 23.1
11 | O[C@@H]1C[C@@H](OCc2ccc(F)cc2)CC[C@H]1N1CCC(N2CCCCC2)CC1 (racemic) | 374 |  |  | > 10000 | 300
12 | O=C(c1ccc(F)cc1)C1CCN([C@@H]2CC[C@H](OCc3ccc(F)cc3)C[C@H]2O)CC1 (racemic) | 2000 | < 0.1 | 0.3 | 5840 | 65.4
13 | O[C@@H]1C[C@@H](OCc2ccc(F)cc2)CC[C@H]1N1CCC(c2ccncc2)CC1 (racemic) | 164 |  |  | > 10000 | 41.1
14 | O[C@@H]1CC[C@@H](OCCCF)C[C@H]1N1CCC(c2ccccc2)CC1 (racemic) | 88.2 | 0.5 | 1.8 | 47.8 | 25.9
15 | O[C@@H]1C[C@@H](OCCCF)CC[C@H]1N1CCC(c2ccccc2)CC1 (racemic) | 717 | 1.6 | 12 | 59.6 | 97.6
16 | O[C@@H]1Cc2ccccc2C[C@H]1N1CCN(c2ccccc2)CC1 (racemic) | 1280 | 8.3 | 22.7 | 56 | 466
17 | O[C@@H]1Cc2ccccc2C[C@H]1N1CC=C(c2ccccc2)CC1 (racemic) | 166 |  |  |  | 24
18 | O[C@@H]1Cc2ccccc2C[C@H]1N1CCC(O)(c2ccccc2)CC1 (racemic) | 549 | 5.8 | 47.7 | 11.5 | 67
19 | O[C@@H]1Cc2ccccc2C[C@H]1N1CCC(Cc2ccccc2)CC1 (racemic) | 60 | 2.8 | 2.6 | 23.2 | 65

Row | Structure (SMILES) | Ki [1] [nM] | Ratio Ki [2] | Ratio Ki [3] | Ki [4] [nM] | Ki [5] [nM]
20 | O[C@@H]1Cc2ccccc2C[C@H]1N1CCC(N2CCCCC2)CC1 (racemic) | 161 | 2.2 | 1.4 | 112 | 248
21 | O[C@@H]1Cc2ccccc2C[C@H]1N1CCC(c2ccncc2)CC1 (racemic) | 258 | 0.5 | 13.4 | 19.3 | 8.9
22 | Nc1cccc2c1C[C@@H](O)[C@H](N1CCC(c3ccccc3)CC1)C2 (racemic) | 726 | 0.2 | 2.1 | 339 | 55.3
23 | O=C(Nc1cccc2c1C[C@@H](O)[C@H](N1CCC(Cc3ccccc3)CC1)C2)c1ccc(F)cc1 (racemic) | 2110 |  |  | > 10000 | 296
24 | O[C@@H]1CCCC[C@H]1N1CCc2ccccc2C1 (racemic) | 809 |  |  |  | 54.3
25 | O[C@@H]1CCCC[C@H]1N1CCC(N2CCCCC2)CC1 (racemic) | 4710 |  |  | 5110 | > 1000
26 | O[C@@H]1CCCC[C@H]1N1CCC(c2ccncc2)CC1 (racemic) | 3320 |  |  | 3380 | > 1000
27 | CCN(CCCc1ccccc1)[C@@H]1C[C@H](OCc2ccc(F)cc2)CC[C@H]1O (racemic) | 109 |  | < 0.1 | 1610 | 10.5
28 | O[C@@H]1CC[C@@H](OCc2ccc(F)cc2)C[C@H]1N1CCC(O)(c2ccccc2)CC1 (racemic) | 134 | 0.2 | 0.4 | 316 | 47.3
29 | CC(=O)C1(c2ccccc2)CCN([C@@H]2C[C@H](OCc3ccc(F)cc3)CC[C@H]2O)CC1 (racemic) | 18.8 | 0.2 | < 0.1 | 260 | 63.1
30 | O[C@@H]1CC[C@@H](OCc2ccc(F)cc2)C[C@H]1N1CCC(c2ccccc2)(c2ccccc2)CC1 (racemic) | 2360 | 0.8 | 3.9 | 603 | 456
31 | O[C@@H]1CC[C@@H](OCc2ccc(F)cc2)C[C@H]1N1CCC(Cc2ccccc2)CC1 (racemic) | 61.8 | 0.2 | 0.6 | 110 | 25.2
32 | O[C@@H]1CC[C@@H](OCc2ccc(F)cc2)C[C@H]1N1CCc2ccccc2C1 (racemic) | 45.9 | < 0.1 | < 0.1 | 4670 | 59
33 | O[C@@H]1CC[C@@H](OCc2ccc(F)cc2)C[C@H]1N1CCC(N2CCCCC2)CC1 (racemic) | 543 | 0.1 | 0.1 | 4790 | 553
34 | O=C(c1ccc(F)cc1)C1CCN([C@@H]2C[C@H](OCc3ccc(F)cc3)CC[C@H]2O)CC1 (racemic) | 640 | < 0.1 | 0.6 | 1030 | 59.4
35 | CCN(CCCc1ccccc1)[C@@H]1CCCC[C@H]1O (racemic) | 652 |  |  | > 10000 | 115
36 | O[C@@H]1Cc2cccc(OCCF)c2C[C@H]1N1CCC(c2ccccc2)CC1 (racemic) |  | 10.7 |  |  | 
37 | O[C@@H]1Cc2ccccc2C[C@H]1N1CCC(c2ccccc2)CC1 (racemic) [BENZOVESAMICOL] | 96.4 |  |  |  | 26.1
38 | O[C@@H]1CCCC[C@H]1N1CCC(c2ccccc2)CC1 (racemic) [VESAMICOL] | 112 |  |  |  | 
